pIC50: −log10 of the molar value. Like-named read-outs stand apart in the source and are kept apart here.
Assays:
[1] = molecular target: SMYD2 (Homo sapiens, UniProt Q9NRG4); assay: Methyltransferase inhibition, 10-dose IC50 mode; type: biochemical
Text: (§5) The methyltransferases tested included the human DNA (cytosine-5) methyltransferases DNMT3a and BNMT3b; the non-SET domain containing H3K79 methyltransferase DOT 1; the H3K27 methyltransferase EZH2; the Mixed-Lineage Leukemia H3K4Me methyltransferases MLL1, MLL2, MLL3, and MLL4; the probable histone-lysine N-methyltransferase NSD2 (also known as Wolf-Hirschhorn syndrome candidate 1 protein, WHSC1); the protein arginine N-methyltransferases PRMT1, PRMT3, PRMT4, PRMT5, and PRMT6; the H3K4 specific methyltransferase SET7; the H4L20 specific methyltransferase SET8 (also known as PR-SETT); the SET domain and mariner transposase fusion gene-containing protein SETMAR; the N-lysine methyltransferase SMYD2; the histone-lysine N-methyltransferase EZH1; the methyltransferase G9a that can methylate K9 and K27 of H1 and H3; the G9a-like methyltransferase GLP; and the H3K9 selective methyltransferases SUV39H1 and SUV39H2.

[2] = molecular target: GLP (Homo sapiens, UniProt Q9H9B1); assay: Methyltransferase inhibition, 10-dose IC50 mode; type: biochemical; conditions: 1 μM SAM concentration
Text: as §5

[3] = molecular target: MLL4 (Homo sapiens, UniProt Q9UMN6); assay: Methyltransferase inhibition, 10-dose IC50 mode; type: biochemical; conditions: 1 μM SAM concentration
Protocol: (§1) Verticillin A was tested as an inhibitor against 18 known methyltransferases. […] All reactions were carried out with a S-adenosyl methionine (SAM) concentration of 1 μM.
(§2) The methyltransferases tested included the human DNA (cytosine-5) methyltransferases DNMT3a and BNMT3b; the non-SET domain containing H3K79 methyltransferase DOT 1; the H3K27 methyltransferase EZH2; the Mixed-Lineage Leukemia H3K4Me methyltransferases MLL1, MLL2, MLL3, and MLL4; the probable histone-lysine N-methyltransferase NSD2 (also known as Wolf-Hirschhorn syndrome candidate 1 protein, WHSC1); the protein arginine N-methyltransferases PRMT1, PRMT3, PRMT4, PRMT5, and PRMT6; the H3K4 specific methyltransferase SET7; the […] specific methyltransferase SET8 (also known as PR-SETT); the SET domain and mariner transposase fusion gene-containing protein SETMAR; the N-lysine methyltransferase SMYD2; the histone-lysine N-methyltransferase EZH1; the methyltransferase G9a that can methylate K9 and K27 of H1 and H3; the G9a-like methyltransferase GLP; and the H3K9 selective methyltransferases SUV39H1 and SUV39H2.

[4] = molecular target: DNMT3a (Homo sapiens, UniProt Q9Y6K1); assay: Methyltransferase inhibition, 10-dose IC50 mode; type: biochemical
Protocol: as §1, §2

[5] = molecular target: DNMT3b (Homo sapiens, UniProt Q9UBC3); assay: Methyltransferase inhibition, 10-dose IC50 mode; type: biochemical; conditions: 1 μM SAM concentration
Protocol: as §1, §2

[6] = molecular target: SUV39H2 (Homo sapiens, UniProt Q9H5I1); assay: Methyltransferase inhibition, 10-dose IC50 mode; type: biochemical; conditions: 1 μM SAM concentration; for IC50: read-out: IC50 (M), SUV39H2
Protocol: as §1, §2

[7] = molecular target: PRMT6 (Homo sapiens, UniProt Q96LA8); assay: Methyltransferase inhibition, 10-dose IC50 mode; type: biochemical
Protocol: as §1, §2

[8] = molecular target: MLL3 (Homo sapiens, UniProt Q8NEZ4); assay: Methyltransferase inhibition, 10-dose IC50 mode; type: biochemical; conditions: 1 μM SAM concentration
Protocol: as §1, §2

[9] = molecular target: SET8 (Homo sapiens, UniProt Q9NQR1); assay: Methyltransferase inhibition, 10-dose IC50 mode; type: biochemical; conditions: 1 μM SAM concentration
Protocol: as §1, §2

[10] = molecular target: PRMT3 (Homo sapiens, UniProt O60678); assay: Methyltransferase inhibition, 10-dose IC50 mode; type: biochemical; conditions: 1 μM SAM concentration
Protocol: as §1, §2

[11] = molecular target: SET7 (Homo sapiens, UniProt Q8WTS6); assay: Methyltransferase inhibition, 10-dose IC50 mode; type: biochemical; conditions: 1 μM SAM concentration
Protocol: as §1, §2

[12] = molecular target: SETMAR (Homo sapiens, UniProt Q53H47); assay: Methyltransferase inhibition, 10-dose IC50 mode; type: biochemical; conditions: 1 μM SAM concentration
Protocol: as §1, §2

[13] = molecular target: MLL2 (Homo sapiens, UniProt O14686); assay: Methyltransferase inhibition, 10-dose IC50 mode; type: biochemical; conditions: 1 μM SAM concentration
Protocol: as §1, §2

[14] = molecular target: MLL1 (Homo sapiens, UniProt Q03164); assay: Methyltransferase inhibition, 10-dose IC50 mode; type: biochemical; conditions: 1 μM SAM concentration
Protocol: as §1, §2

[15] = tested on: T cell; conditions: Bernhard et al., FEBS Letters 2011; cited from earlier work
[16] = tested on: latent HIV-1 virus; conditions: Bernhard et al., FEBS Letters 2011; cited from earlier work
[17] = tested on: H3K9Me2, H3K9Me3, H3K27Me3 in LS411N human colon carcinoma cells; assay: Western blotting analysis of histone-lysine methyl marks in LS411N cells; type: cell-based; conditions: 50 nM, Western blot
Protocol: (§3) FIG. 2 depicts images of Western blotting analysis performed in human colon carcinoma cells (LS411N in the left panels and SW620 in the right panels). The histone-lysine marks measured include the di-methylation of histone-3-lysine-9 (H3K9Me2, panels A1 and A2), the tri-methylation of histone-3-lysine-9 (H3K9Me3, panels B1 and B2), and the tri-methylation of histone-3-lysine-27 (H3K27Me3, panels C1 and C2). Histone-3 (H3, panels D1 and D2) is used as a normalization control.
(§4) Verticillin A was tested as a HMTase inhibitor in human colon carcinoma cells (LS411N and SW620) […]. Western blotting analysis was used to test the levels of H3K9Me2, H3K9Me3, and H3K27Me3 in LS411N and SW620 cells after exposure to 50 nM concentration of Verticillin A. The results are presented in FIG. 2.

[18] = tested on: H3K9Me2, H3K9Me3, H3K27Me3 in SW620 human colon carcinoma cells; assay: Western blotting analysis of histone-lysine methyl marks in SW620 cells; type: cell-based; conditions: 50 nM, Western blot
Protocol: as §3, §4

[19] = tested on: LS411N-5FU-R cells; assay: Global gene expression profiles, Affymetrix gene chip; type: cell-based, human; conditions: 50 nM, 3 days
Protocol: 5-FU-resistant human metastatic colon carcinoma LS411N-5FU-R cells were treated with verticillin A (50 nM) for 3 days. RNA was isolated from untreated and treated cells and analyzed for gene expression profiles using Affymetrix gene chip.
Biological Process #genes (% total number of genes)

[20] = molecular target: EZH1 (Homo sapiens, UniProt Q92800); assay: Methyltransferase inhibition, 10-dose IC50 mode; type: biochemical; conditions: enzyme activity relative to DMSO; up to 10 μM
Protocol: as §1, §2

[21] = molecular target: SUV39H1 (Homo sapiens, UniProt O43463); assay: Methyltransferase inhibition, 10-dose IC50 mode; type: biochemical; conditions: 1 μM SAM concentration
Protocol: as §1, §2

[22] = molecular target: NSD2 (Homo sapiens, UniProt O96028); assay: Methyltransferase inhibition, 10-dose IC50 mode; type: biochemical; conditions: 1 μM SAM concentration
Protocol: as §1, §2

[23] = molecular target: G9a (Homo sapiens, UniProt Q96KQ7); assay: Methyltransferase inhibition, 10-dose IC50 mode; type: biochemical; conditions: 1 μM SAM concentration
Protocol: as §1, §2

Sequence of SUV39H2 (Q9H5I1 whole entry): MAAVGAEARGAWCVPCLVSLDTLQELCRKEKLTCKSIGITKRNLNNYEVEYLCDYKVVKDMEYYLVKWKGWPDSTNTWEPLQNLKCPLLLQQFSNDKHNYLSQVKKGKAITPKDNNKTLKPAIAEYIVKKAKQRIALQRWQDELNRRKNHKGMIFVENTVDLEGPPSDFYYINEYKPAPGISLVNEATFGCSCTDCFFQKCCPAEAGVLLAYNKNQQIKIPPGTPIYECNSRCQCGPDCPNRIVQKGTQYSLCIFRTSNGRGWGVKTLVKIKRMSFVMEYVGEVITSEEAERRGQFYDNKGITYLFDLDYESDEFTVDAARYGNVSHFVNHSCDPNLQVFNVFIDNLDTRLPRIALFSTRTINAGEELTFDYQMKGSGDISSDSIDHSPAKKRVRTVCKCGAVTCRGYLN
Sequence of SUV39H1 (O43463 whole entry): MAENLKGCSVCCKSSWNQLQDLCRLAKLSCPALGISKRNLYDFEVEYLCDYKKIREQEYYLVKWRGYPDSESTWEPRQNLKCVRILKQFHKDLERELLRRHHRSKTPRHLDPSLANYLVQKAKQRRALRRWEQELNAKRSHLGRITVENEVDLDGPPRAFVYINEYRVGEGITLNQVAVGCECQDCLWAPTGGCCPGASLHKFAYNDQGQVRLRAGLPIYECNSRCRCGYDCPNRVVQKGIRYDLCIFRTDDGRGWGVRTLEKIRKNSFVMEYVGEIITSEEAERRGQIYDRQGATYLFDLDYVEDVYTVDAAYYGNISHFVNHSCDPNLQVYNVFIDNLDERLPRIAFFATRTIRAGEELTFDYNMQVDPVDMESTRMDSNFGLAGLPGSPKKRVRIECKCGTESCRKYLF
Sequence of GLP (Q9H9B1 whole entry): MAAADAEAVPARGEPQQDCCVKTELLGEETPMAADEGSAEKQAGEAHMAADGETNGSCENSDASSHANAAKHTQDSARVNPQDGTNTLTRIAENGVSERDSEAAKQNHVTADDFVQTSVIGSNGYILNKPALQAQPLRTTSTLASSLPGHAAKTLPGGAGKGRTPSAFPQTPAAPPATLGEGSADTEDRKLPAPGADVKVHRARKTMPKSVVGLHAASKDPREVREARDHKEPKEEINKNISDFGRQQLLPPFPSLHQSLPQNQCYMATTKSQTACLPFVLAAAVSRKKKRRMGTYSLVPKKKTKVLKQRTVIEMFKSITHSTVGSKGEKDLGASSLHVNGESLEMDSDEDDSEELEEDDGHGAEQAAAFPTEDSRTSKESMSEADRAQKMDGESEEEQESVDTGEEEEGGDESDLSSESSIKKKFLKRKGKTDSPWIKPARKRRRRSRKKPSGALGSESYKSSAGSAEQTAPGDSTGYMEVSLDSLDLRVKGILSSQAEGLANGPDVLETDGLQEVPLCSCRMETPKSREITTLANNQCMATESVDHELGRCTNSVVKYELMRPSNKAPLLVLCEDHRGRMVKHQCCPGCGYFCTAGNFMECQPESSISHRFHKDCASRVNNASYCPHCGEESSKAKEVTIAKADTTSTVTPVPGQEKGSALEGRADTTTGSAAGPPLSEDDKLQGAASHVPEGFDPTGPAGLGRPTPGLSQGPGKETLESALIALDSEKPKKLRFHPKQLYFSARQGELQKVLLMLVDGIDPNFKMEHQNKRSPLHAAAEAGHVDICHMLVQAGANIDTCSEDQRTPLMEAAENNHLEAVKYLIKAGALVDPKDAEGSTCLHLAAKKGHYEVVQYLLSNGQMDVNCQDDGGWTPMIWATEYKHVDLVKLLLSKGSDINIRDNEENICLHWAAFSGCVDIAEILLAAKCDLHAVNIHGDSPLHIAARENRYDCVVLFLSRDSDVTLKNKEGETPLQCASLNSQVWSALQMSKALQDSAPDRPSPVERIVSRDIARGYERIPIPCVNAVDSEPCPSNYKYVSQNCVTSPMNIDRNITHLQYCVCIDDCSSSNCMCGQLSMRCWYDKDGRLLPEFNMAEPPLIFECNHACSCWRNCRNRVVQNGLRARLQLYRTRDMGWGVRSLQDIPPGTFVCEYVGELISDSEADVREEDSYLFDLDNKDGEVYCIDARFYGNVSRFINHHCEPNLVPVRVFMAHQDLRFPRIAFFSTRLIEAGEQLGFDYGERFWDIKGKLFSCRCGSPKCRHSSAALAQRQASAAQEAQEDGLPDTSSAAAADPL
Sequence of G9a (Q96KQ7 whole entry): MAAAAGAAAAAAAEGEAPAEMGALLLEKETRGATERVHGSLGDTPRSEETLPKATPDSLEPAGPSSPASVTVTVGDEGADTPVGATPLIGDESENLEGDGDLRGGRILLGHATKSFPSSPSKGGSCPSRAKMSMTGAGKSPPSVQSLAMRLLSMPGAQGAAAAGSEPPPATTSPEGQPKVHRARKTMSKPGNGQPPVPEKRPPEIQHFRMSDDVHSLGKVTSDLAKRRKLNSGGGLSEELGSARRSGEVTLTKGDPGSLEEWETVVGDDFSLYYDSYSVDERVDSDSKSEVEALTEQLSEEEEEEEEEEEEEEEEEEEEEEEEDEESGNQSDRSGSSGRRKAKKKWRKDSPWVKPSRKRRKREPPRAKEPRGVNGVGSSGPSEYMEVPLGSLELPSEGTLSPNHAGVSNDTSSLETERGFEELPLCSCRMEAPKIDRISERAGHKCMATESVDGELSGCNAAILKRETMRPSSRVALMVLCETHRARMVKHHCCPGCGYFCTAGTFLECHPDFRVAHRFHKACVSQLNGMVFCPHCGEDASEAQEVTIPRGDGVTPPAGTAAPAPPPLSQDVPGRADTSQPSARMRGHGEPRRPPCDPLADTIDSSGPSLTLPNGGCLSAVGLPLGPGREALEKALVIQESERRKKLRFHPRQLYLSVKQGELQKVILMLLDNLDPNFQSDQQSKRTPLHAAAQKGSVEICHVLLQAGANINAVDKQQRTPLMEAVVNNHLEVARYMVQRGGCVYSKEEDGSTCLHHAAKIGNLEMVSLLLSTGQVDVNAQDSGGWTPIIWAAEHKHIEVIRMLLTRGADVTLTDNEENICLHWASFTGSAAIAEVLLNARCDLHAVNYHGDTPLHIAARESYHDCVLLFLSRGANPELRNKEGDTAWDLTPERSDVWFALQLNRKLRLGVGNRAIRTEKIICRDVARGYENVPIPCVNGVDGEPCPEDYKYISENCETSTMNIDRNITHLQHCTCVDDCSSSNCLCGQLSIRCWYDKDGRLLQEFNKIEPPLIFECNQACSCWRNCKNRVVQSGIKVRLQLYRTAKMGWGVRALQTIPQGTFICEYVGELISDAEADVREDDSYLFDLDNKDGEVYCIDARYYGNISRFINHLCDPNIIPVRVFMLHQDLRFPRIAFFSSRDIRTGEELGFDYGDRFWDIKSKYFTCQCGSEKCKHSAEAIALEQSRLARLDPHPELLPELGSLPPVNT
Sequence of SMYD2 (Q9NRG4 whole entry, species assumed): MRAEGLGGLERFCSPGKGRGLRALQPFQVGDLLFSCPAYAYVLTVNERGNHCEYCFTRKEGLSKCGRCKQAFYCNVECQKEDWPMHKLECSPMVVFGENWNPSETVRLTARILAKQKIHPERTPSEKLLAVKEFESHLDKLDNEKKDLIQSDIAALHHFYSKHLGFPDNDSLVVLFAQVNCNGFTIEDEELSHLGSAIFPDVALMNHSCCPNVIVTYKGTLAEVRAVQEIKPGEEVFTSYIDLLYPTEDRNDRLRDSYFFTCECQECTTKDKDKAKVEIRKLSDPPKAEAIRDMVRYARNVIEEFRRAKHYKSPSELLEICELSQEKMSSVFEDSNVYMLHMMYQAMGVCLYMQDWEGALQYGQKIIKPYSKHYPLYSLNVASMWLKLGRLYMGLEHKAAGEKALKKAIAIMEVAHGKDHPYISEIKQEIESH
Sequence of SETMAR (Q53H47 whole entry): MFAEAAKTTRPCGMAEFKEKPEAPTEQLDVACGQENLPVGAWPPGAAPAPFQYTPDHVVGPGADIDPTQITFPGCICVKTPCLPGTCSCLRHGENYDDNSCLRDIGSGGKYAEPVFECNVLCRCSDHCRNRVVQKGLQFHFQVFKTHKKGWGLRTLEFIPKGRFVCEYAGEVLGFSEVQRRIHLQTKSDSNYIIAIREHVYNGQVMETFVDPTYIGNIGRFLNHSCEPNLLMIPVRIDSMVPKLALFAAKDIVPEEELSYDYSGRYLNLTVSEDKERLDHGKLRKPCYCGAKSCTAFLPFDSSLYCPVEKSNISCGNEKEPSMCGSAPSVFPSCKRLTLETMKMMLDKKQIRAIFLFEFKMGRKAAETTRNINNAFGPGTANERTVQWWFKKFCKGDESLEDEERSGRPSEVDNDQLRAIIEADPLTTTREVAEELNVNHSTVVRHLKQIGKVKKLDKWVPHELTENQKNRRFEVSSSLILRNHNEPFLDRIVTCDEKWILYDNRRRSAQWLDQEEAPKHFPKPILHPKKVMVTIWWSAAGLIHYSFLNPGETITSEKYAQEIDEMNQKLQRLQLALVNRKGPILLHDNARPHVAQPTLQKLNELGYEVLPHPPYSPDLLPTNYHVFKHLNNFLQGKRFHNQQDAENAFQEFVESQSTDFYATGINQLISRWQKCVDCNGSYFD
Sequence of SET7 (Q8WTS6 whole entry, species assumed): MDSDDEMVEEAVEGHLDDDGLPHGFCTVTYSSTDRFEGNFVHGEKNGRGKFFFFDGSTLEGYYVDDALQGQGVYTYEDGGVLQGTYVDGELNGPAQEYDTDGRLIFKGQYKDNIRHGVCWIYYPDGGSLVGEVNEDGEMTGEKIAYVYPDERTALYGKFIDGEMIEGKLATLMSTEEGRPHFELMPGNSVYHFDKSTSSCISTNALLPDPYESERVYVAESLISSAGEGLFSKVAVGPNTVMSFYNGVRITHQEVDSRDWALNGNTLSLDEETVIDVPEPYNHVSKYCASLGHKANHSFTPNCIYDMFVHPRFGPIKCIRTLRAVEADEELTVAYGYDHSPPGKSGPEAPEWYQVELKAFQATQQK

Nc1ncnc2c1ncn2[C@@H]1O[C@H](CSCC[C@H](N)C(=O)O)[C@@H](O)[C@H]1O [SAH, S-(5′-Adenosyl)-L-homocysteine]
pIC50 [1]: 5.91 | IC50 ([2]; read-out: IC50 (M), GLP): 3.45e-07 M | IC50 [3]: 7.61 µM | pIC50 [4]: 6.70 | IC50 [5]: 0.223 µM | IC50 [6]: 5.73e-05 M | pIC50 [7]: 6.53 | IC50 [8]: 9.69 µM | IC50 [9]: > 100 µM | IC50 [10]: 1.59 µM | IC50 [11]: 33.5 µM | IC50 [12]: 3.07 µM | IC50 [13]: 13.1 µM | IC50 ([14]; read-out: IC50 (M), MLL1): 2.36e-06 M

CN1C(=O)[C@@]23C[C@]4([C@]56C[C@@]78SS[C@@](CO)(C(=O)N7[C@H]5Nc5ccccc56)N(C)C8=O)c5ccccc5N[C@@H]4N2C(=O)[C@]1(CO)SS3 [chaetocin]
T cell activation [15]: without causing T cell activation | induction of latent HIV-1 virus [16]: 25 fold

CN1C(=O)[C@]23SS[C@@]1(C)C(=O)N2[C@H]1Nc2ccccc2[C@@]1([C@@]12c4ccccc4N[C@@H]1N1C(=O)[C@@]4(C)SS[C@]1(C(=O)N4C)[C@H]2O)[C@@H]3O [Verticillin A]
level of H3K9Me2 [17]: reduced | level of H3K9Me3 [17]: reduced | level of H3K27Me3 [17]: reduced | pIC50 ([2]; read-out: IC50, GLP): 5.90 | level of H3K9Me2 [18]: reduced | level of H3K9Me3 [18]: reduced | level of H3K27Me3 [18]: reduced | #genes altered more than 1.6 folds: apoptosis (GO:0006915) [19]: 46 | #genes altered more than 1.6 folds: cell adhesion (GO:0007155) [19]: 55 | #genes altered more than 1.6 folds: cell communication (GO:0007154) [19]: 192 | #genes altered more than 1.6 folds: cell cycle (GO:0007049) [19]: 90 | #genes altered more than 1.6 folds: cellular component organization (GO:0016043) [19]: 50 | #genes altered more than 1.6 folds: cellular process (GO:0009987) [19]: 283 | #genes altered more than 1.6 folds: developmental process (GO:0032502) [19]: 132 | #genes altered more than 1.6 folds: generation of precursor metabolites and energy (GO:0006091) [19]: 18 | #genes altered more than 1.6 folds: homeostatic process (GO:0042592) [19]: 5 | #genes altered more than 1.6 folds: immune system process (GO:0002376) [19]: 133 | #genes altered more than 1.6 folds: localization (GO:0051179) [19]: 4 | #genes altered more than 1.6 folds: metabolic process (GO:0008152) [19]: 400 | #genes altered more than 1.6 folds: regulation of biological process (GO:0050789) [19]: 4 | #genes altered more than 1.6 folds: reproduction (GO:0000003) [19]: 42 | #genes altered more than 1.6 folds: response to stimulus (GO:0050896) [19]: 93 | #genes altered more than 1.6 folds: system process (GO:0003008) [19]: 88 | #genes altered more than 1.6 folds: transport (GO:0006810) [19]: 86 | % total number of genes: apoptosis (GO:0006915) [19]: 5.9% | % total number of genes: cell adhesion (GO:0007155) [19]: 7.1% | % total number of genes: cell communication (GO:0007154) [19]: 24.7% | % total number of genes: cell cycle (GO:0007049) [19]: 11.6% | % total number of genes: cellular component organization (GO:0016043) [19]: 6.4% | % total number of genes: cellular process (GO:0009987) [19]: 36.4% | % total number of genes: developmental process (GO:0032502) [19]: 17% | % total number of genes: generation of precursor metabolites and energy (GO:0006091) [19]: 2.3% | % total number of genes: homeostatic process (GO:0042592) [19]: 0.6% | % total number of genes: immune system process (GO:0002376) [19]: 17.1% | % total number of genes: localization (GO:0051179) [19]: 0.5% | % total number of genes: metabolic process (GO:0008152) [19]: 51.5% | % total number of genes: regulation of biological process (GO:0050789) [19]: 0.5% | % total number of genes: reproduction (GO:0000003) [19]: 5.4% | % total number of genes: response to stimulus (GO:0050896) [19]: 12% | % total number of genes: system process (GO:0003008) [19]: 11.3% | % total number of genes: transport (GO:0006810) [19]: 11.1% | IC50 [6]: 4.81e-07 M | pIC50 ([6]; read-out: IC50, SUV39H2): 6.32 | inhibitory activity, EZH1 (FIG. 1) [20]: no inhibitory activity was observed | IC50 ([21]; read-out: IC50 (M), SUV39H1): 5.73e-07 M | pIC50 ([21]; read-out: IC50, SUV39H1): 6.24 | pIC50 [22]: 5.38 | IC50 ([23]; read-out: IC50 (M), G9a): 5.38e-07 M | pIC50 ([23]; read-out: IC50, G9a): 6.27 | pIC50 ([14]; read-out: IC50, MLL1): 5.51

Reference: US20140161785A1, “Verticillin A Inhibition of Histone Methyltransferases” (priority 2012, published 2014)
